Non-standard residues stand in square brackets, D forms with d. Residues, ends and D or L forms follow the SMILES beside them.
Experiments:
Type in all cases: cell-based
[1] = test system: ConA stimulated monocytes; assay: Anti-inflammatory activity in ConA stimulated monocytes, canine (Table 23); conditions: 32 μg/ml peptide, negative = increase
CCL5 = CCL5 production by peptide alone and in presence of LPS, bovine cells (Table 21); conditions: peptide 32 μg/ml
Procedure: A subset of peptides was tested for stimulation of the chemokine CCL5 (Table 21).

E. coli (Ec) [2] = conditions: Ec
T-lymphocytes [3] = assay: Anti-inflammatory activity towards stimulated T-lymphocytes, bovine (Table 25); conditions: Bovine T-cells, 32 μg/ml of peptide
T-lymphocytes [4] = assay: Cytokine production in T-lymphocytes, canine (Table 24); conditions: no additional stimulant, background (NONE) subtracted
monocytes = assay: Cytokine production in unstimulated monocytes, canine (Table 22); conditions: background subtracted
Procedure: A subset of peptides was tested for stimulation of cytokine production in monocytes (Table 22). For the tested cytokines, the peptides tended to show anti-inflammatory activity rather than […] activity.

T-lymphocytes [5] = assay: Anti-inflammatory activity towards stimulated T-lymphocytes, canine (Table 25); conditions: Canine T-cells, 32 μg/ml of peptide
E. coli (Ec) [6] = conditions: Ec; remark: listed apart in the source
Procedure: (§1) The same strains as in Table 18 were assessed for Minimal Biofilm Inhibitory Concentrations (MBIC) (Table 19). Italics=excellent activity (less than or equal to 4 μg/ml). ND=Not determined. Peptides 3013, 3015 and 3016 inhibited biofilm growth in the largest number of bacterial strains (5, 5 and 6 out of 13 strains, respectively).
(§2) In addition, several peptides expressed preferential activity vs. biofilms (MBIC) cf. planktonic cells (MIC) (Table 20).

S. aureus (Sau) = conditions: Sau
Procedure: as §1, §2

T-lymphocytes [7] = assay: Cytokine production in T-lymphocytes, bovine (Table 24); conditions: no additional stimulant, background (NONE) subtracted

CC[C@@H](C)[C@@H](NC(=O)[C@@H](C)NC(=O)[C@@H](CCCNC(=N)N)NC(=O)[C@@H](Cc1c[nH]c2ccccc12)NC(=O)[C@@H](CCC(N)=O)NC(=O)[C@H](N)C(C)C)C(=O)N[C@H](CCCNC(=N)N)C(=O)N[C@@H](C(=O)N[C@H](CCCNC(=N)N)C(=O)N[C@@H](C(=O)N[C@@H](C(=O)N[C@H](CCCNC(=N)N)C(N)=O)[C@H](C)CC)C(C)C)C(C)C [DJK5, VQWRAIRVRVIR] (H-[dV][dQ][dW][dR][dA][dI][dR][dV][dR][dV][dI][dR]-NH2; N-terminus and C-terminus assumed) was tested, and the “% Monocyte cytokine decrease in presence of LPS/ConA, IL-6” value [1] was 39.9%, the “% Monocyte cytokine decrease in presence of LPS/ConA, IL-13” value [1] was 36.5% and the “% Monocyte cytokine decrease in presence of LPS/ConA, TNFα” value [1] was 44.3%. For the same molecule, the “Concentration of CCL5 in the absence of stimulation by LPS or ConA” value (CCL5; Bovine Monocyte) was 825, the “Concentration of CCL5 in the absence of stimulation by LPS or ConA” value (CCL5; Bovine T-cells) was 195 and the “% CCL5 production relative to that of LPS/ConA” value (CCL5; Bovine/LPS Monocyte) was 105%. For the same molecule, the “% CCL5 production relative to that of LPS/ConA” value (CCL5; Bovine/LPS T-cells) was 79%, the “MIC E. coli” value (E. coli (Ec) [2]) was less than 1 µg/mL and the “MIC Ec” value (E. coli (Ec) [2]) was less than 1 µg/mL. The “% Cytokine decrease in the presence of LPS/ConA: IFNγ” value (T-lymphocytes [3]) was 34.9%, the “% Cytokine decrease in the presence of LPS/ConA: IL-2” value (T-lymphocytes [3]) was 80.7% and the “% Cytokine decrease in the presence of LPS/ConA: IL-4” value (T-lymphocytes [3]) was 37.7%. The “% Cytokine decrease in the presence of LPS/ConA: IL-6” value (T-lymphocytes [3]) was −16.4%, the “% Cytokine decrease in the presence of LPS/ConA: IL-13” value (T-lymphocytes [3]) was 85.3% and the “% Cytokine decrease in the presence of LPS/ConA: TNFα” value (T-lymphocytes [3]) was 38.2%. The “Concentration of T-cell cytokines in the absence of additional stimulant: IFNγ” value (T-lymphocytes [4]) was 11 pg/mL, the “Concentration of T-cell cytokines in the absence of additional stimulant: IL-2” value (T-lymphocytes [4]) was 13 pg/mL and the “Concentration of T-cell cytokines in the absence of additional stimulant: IL-4” value (T-lymphocytes [4]) was 71 pg/mL. For the same molecule, the “Concentration of T-cell cytokines in the absence of additional stimulant: IL-6” value (T-lymphocytes [4]) was 149 pg/mL, the “Concentration of T-cell cytokines in the absence of additional stimulant: IL-13” value (T-lymphocytes [4]) was -100 pg/mL and the “Concentration of T-cell cytokines in the absence of additional stimulant: TNFα” value (T-lymphocytes [4]) was -46 pg/mL. For the same molecule, the “Concentration of Monocyte cytokine IFNγ in absence of additional stimulant” value (monocytes) was -310 pg/mL, the “Concentration of Monocyte cytokine IL-2 in absence of additional stimulant” value (monocytes) was 86 pg/mL and the “Concentration of Monocyte cytokine IL-4 in absence of additional stimulant” value (monocytes) was -241 pg/mL. The “Concentration of Monocyte cytokine IL-6 in absence of additional stimulant” value (monocytes) was -113 pg/mL, the “Concentration of Monocyte cytokine IL-13 in absence of additional stimulant” value (monocytes) was -25 pg/mL and the “Concentration of Monocyte cytokine TNFα in absence of additional stimulant” value (monocytes) was -73 pg/mL. For the same molecule, the “% Cytokine decrease in the presence of LPS/ConA: IFNγ” value (T-lymphocytes [5]) was 60.2%, the “% Cytokine decrease in the presence of LPS/ConA: IL-2” value (T-lymphocytes [5]) was 62.3% and the “% Cytokine decrease in the presence of LPS/ConA: IL-4” value (T-lymphocytes [5]) was 65.5%. The “% Cytokine decrease in the presence of LPS/ConA: IL-6” value (T-lymphocytes [5]) was 24.8%, the “% Cytokine decrease in the presence of LPS/ConA: IL-13” value (T-lymphocytes [5]) was 48.2% and the “% Cytokine decrease in the presence of LPS/ConA: TNFα” value (T-lymphocytes [5]) was 7.1%. The MBIC (E. coli (Ec) [6]) was less than 1 µg/mL, the “MBIC E. coli” value (E. coli (Ec) [6]) was less than 1 µg/mL and the MBIC (S. aureus (Sau)) was less than 1 µg/mL. The “MBIC S. aureus” value (S. aureus (Sau)) was less than 1 µg/mL, the “Concentration of T-cell cytokines in the absence of additional stimulant: IFNγ” value (T-lymphocytes [7]) was -12 pg/mL and the “Concentration of T-cell cytokines in the absence of additional stimulant: IL-2” value (T-lymphocytes [7]) was -66 pg/mL. The “Concentration of T-cell cytokines in the absence of additional stimulant: IL-4” value (T-lymphocytes [7]) was -73 pg/mL, the “Concentration of T-cell cytokines in the absence of additional stimulant: IL-6” value (T-lymphocytes [7]) was -92 pg/mL and the “Concentration of T-cell cytokines in the absence of additional stimulant: IL-13” value (T-lymphocytes [7]) was 178 pg/mL. For the same molecule, the “Concentration of T-cell cytokines in the absence of additional stimulant: TNFα” value (T-lymphocytes [7]) was 113 pg/mL.
